Laboratory results reported in patent US6930115B2, “Antitumor effect potentiators” (Mitsubishi Pharma Corporation, priority 2000, dated 2005).

Legend:
[1] = system: Mouse melanoma B16-F10 cells; experiment: Measurement of cell growth activity (MTT), in vitro growth of B16-F10 cells; type: cell-based; conditions: 72 hr culture, MTT
Protocol: Mouse melanoma B16-F10 cells (the aforementioned) were cultured in MEM supplemented with 2 mM L-glutamine, 1 mM MEM non-essential amino acids, 1% MEM vitamins, 1 mM pyruvic acid and 5% FCS, and the cells were scraped off from the culture flask every 3-4 days with a cell scraper (No. 3010, manufactured by Coaster), diluted 10-fold and maintained by subculture. In the experiment examining the effect of the test substance on the cell growth, the B16-F10 cells maintained in vitro by subculture were recovered with a cell scraper, suspended in MEM supplemented with 10% FCS at 2×10^5 cells/mL and added to a 96 well microtest plate (Becton Dickinson) at 1×10^4 cells/50 μL/well. Furthermore, 50 μL of a test substance at a 2-fold concentration of the final concentration was added to the well, and cultured in a CO2 incubator (MCO-175, SANYO Electric Co., Ltd.) at 37° C., 5% CO2 95% air for 72 hr.
After culture, 10 mg/mL of MTT [(3-[4,5-Dimethylthiazol-2-yl]-2,5-diphenyl-tetrazolium bromide)] was added at 10 μL/well, which was followed by culture for 3 hr. Thereafter, 100 μL of 10% SDS (sodium dodecylsulfate)—0.01N HCl was added to dissolve the pigment and absorbance at 570 nm was measured with a multilabel counter (1420 ARVO SX, Pharmacia Biotech Corporation). According to the concentration of the test substance, each well was expressed by absorbance, and average value and standard error. Using the well, to which the medium alone was added, as a control, the growth inhibition rate was calculated according to the following formula. [formula] Analysis method: Based on the dose reaction curves of the inventive compound alone treatment group and cisplatin alone treatment group, the combination index (CI) of the action in concomitant use is calculated by median effect analysis (References and [2]). (Results)

[2] = system: mouse B16-F10 melanoma cultured cells; experiment: Hematogenous pulmonary metastasis after transplantation of mouse B16-F10 melanoma cultured cells into tail vein; type: in vivo; conditions: alone
Protocol: • (1) Preparation of mouse B16-F10 melanoma cultured cells (hereinafter simply B16-F10) B16-F10 cells (a permission to use was obtained from US M.D. Anderson Cancer Center, Dr. I. Fidler and provided for use from Japanese Foundation for cancer research·cancer chemotherapy center, Dr. […] For experiment, B16-F10 cells were suspended in MEM at 5×10^5 cells/mL and 0.2 mL thereof was transferred into the tail vein of 8-week-old male C57BL/6 mice (8 per group). […] Alzet, model 1002, flow rate […], for use for 14 days), and the osmotic pump was intraperitoneally transplanted into the mice one day before the transplantation of B16-F10 cells. • (3) As regards cisplatin, a preparation for injection (product name: Randa injection) was diluted with physiological saline and intraperitoneally administered once the day after transplantation of B16-F10 cells. As regards etoposide, a preparation for injection (product name: […] injection) was diluted with physiological saline and repeatedly administered intraperitoneally once a day for 5 days starting from one day after transplantation of B16-F10 cells. Paclitaxel was purchased from Sigma chemicals Co., suspended in 0.5% metolose solution and repeatedly administered intraperitoneally once every other day (3 times/week for 2 weeks) starting from one day after transplantation of B16-F10 cells. […] In addition, the values of combination index (CI) of the action in concomitant use analyzed by Median Effect Analysis (References and [2]) with regard to the combination group of the compound of the present invention and the anticancer agent are summarized in Table 3 and Table 6.

SMILES: N.N.[Cl][Pt][Cl] [cisplatin, reference compound]
- average growth suppression rate ± standard error ([1]; cisplatin 10 μM alone): 5.813 ± 1.510%
- average growth suppression rate ± standard error ([1]; cisplatin 30 μM alone): 29.609 ± 4.503%
- average growth suppression rate ± standard error ([1]; cisplatin 100 μM alone): 96.631 ± 0.109%
- T/C±standard error (average number of pulmonary metastatic colonies of administration group/control group ×100) ([2]; Table 1, cisplatin 0.5 mg/kg intraperitoneally once, 14 days after cell transfer): 80.2 ± 13.2%
- T/C±standard error (average number of pulmonary metastatic colonies of administration group/control group ×100) ([2]; Table 1, cisplatin 1 mg/kg intraperitoneally once, 14 days after cell transfer): 66.5 ± 8.3%
- T/C±standard error (average number of pulmonary metastatic colonies of administration group/control group ×100) ([2]; Table 1, cisplatin 2.5 mg/kg intraperitoneally once, 14 days after cell transfer): 57.5 ± 3.0%
- T/C±standard error (average number of pulmonary metastatic colonies of administration group/control group ×100) ([2]; Table 1, cisplatin 5 mg/kg intraperitoneally once, 14 days after cell transfer): 53.3 ± 4.5%
- T/C±standard error (average number of pulmonary metastatic colonies of administration group/control group ×100) ([2]; Table 1, cisplatin 10 mg/kg intraperitoneally once, 14 days after cell transfer): 46.7 ± 4.1%
- T/C±standard error (average number of pulmonary metastatic colonies of administration group/control group ×100) ([2]; Table 2, cisplatin 0.5 mg/kg intraperitoneally once, 14 days after cell transfer): 81.7 ± 13.4%
- T/C±standard error (average number of pulmonary metastatic colonies of administration group/control group ×100) ([2]; Table 2, cisplatin 1 mg/kg intraperitoneally once, 14 days after cell transfer): 67.7 ± 8.4%
- T/C±standard error (average number of pulmonary metastatic colonies of administration group/control group ×100) ([2]; Table 2, cisplatin 2.5 mg/kg intraperitoneally once, 14 days after cell transfer): 58.6 ± 3.0%
- T/C±standard error (average number of pulmonary metastatic colonies of administration group/control group ×100) ([2]; Table 2, cisplatin 5 mg/kg intraperitoneally once, 14 days after cell transfer): 54.3 ± 4.6%
- T/C±standard error (average number of pulmonary metastatic colonies of administration group/control group ×100) ([2]; Table 2, cisplatin 10 mg/kg intraperitoneally once, 14 days after cell transfer): 30.8 ± 4.7%

SMILES: COc1cc([C@@H]2c3cc4c(cc3[C@@H](O[C@@H]3O[C@@H]5CO[C@@H](C)O[C@H]5[C@H](O)[C@H]3O)[C@H]3COC(=O)[C@H]23)OCO4)cc(OC)c1O [etoposide, reference compound]
- T/C±standard error (average number of pulmonary metastatic colonies of administration group/control group ×100) ([2]; Table 4, etoposide 1 mg/kg intraperitoneally once a day for 5 days): 56.0 ± 3.0%
- T/C±standard error (average number of pulmonary metastatic colonies of administration group/control group ×100) ([2]; Table 4, etoposide 2.5 mg/kg intraperitoneally once a day for 5 days): 34.0 ± 7.4%
- T/C±standard error (average number of pulmonary metastatic colonies of administration group/control group ×100) ([2]; Table 4, etoposide 5 mg/kg intraperitoneally once a day for 5 days): 33.4 ± 4.0%
- T/C±standard error (average number of pulmonary metastatic colonies of administration group/control group ×100) ([2]; Table 4, etoposide 10 mg/kg intraperitoneally once a day for 5 days): 22.5 ± 4.2%
- T/C±standard error (average number of pulmonary metastatic colonies of administration group/control group ×100) ([2]; Table 4, etoposide 25 mg/kg intraperitoneally once a day for 5 days): 14.5 ± 2.6%

SMILES: CC(=O)O[C@H]1C(=O)[C@@]2(C)[C@H]([C@H](OC(=O)c3ccccc3)[C@]3(O)C[C@H](OC(=O)[C@H](O)[C@@H](NC(=O)c4ccccc4)c4ccccc4)C(C)=C1C3(C)C)[C@]1(OC(C)=O)CO[C@@H]1C[C@@H]2O [paclitaxel, reference compound]
- T/C±standard error (average number of pulmonary metastatic colonies of administration group/control group ×100) ([2]; Table 5, paclitaxel 1 mg/kg intraperitoneally once every other day (3 times/week for 2 weeks)): 75.9 ± 5.9%
- T/C±standard error (average number of pulmonary metastatic colonies of administration group/control group ×100) ([2]; Table 5, paclitaxel 2.5 mg/kg intraperitoneally once every other day (3 times/week for 2 weeks)): 48.8 ± 8.4%
- T/C±standard error (average number of pulmonary metastatic colonies of administration group/control group ×100) ([2]; Table 5, paclitaxel 5 mg/kg intraperitoneally once every other day (3 times/week for 2 weeks)): 37.3 ± 4.0%
- T/C±standard error (average number of pulmonary metastatic colonies of administration group/control group ×100) ([2]; Table 5, paclitaxel 10 mg/kg intraperitoneally once every other day (3 times/week for 2 weeks)): 30.3 ± 3.6%
- T/C±standard error (average number of pulmonary metastatic colonies of administration group/control group ×100) ([2]; Table 5, paclitaxel 25 mg/kg intraperitoneally once every other day (3 times/week for 2 weeks)): 31.5 ± 7.2%
